Target: T1, human FSH receptor (Homo sapiens, UniProt P23945)
T1 construct: expressed in transfected cells; host or cells: CHO cells (hFSHR clone 16)
T1 sequence (P23945 18-695): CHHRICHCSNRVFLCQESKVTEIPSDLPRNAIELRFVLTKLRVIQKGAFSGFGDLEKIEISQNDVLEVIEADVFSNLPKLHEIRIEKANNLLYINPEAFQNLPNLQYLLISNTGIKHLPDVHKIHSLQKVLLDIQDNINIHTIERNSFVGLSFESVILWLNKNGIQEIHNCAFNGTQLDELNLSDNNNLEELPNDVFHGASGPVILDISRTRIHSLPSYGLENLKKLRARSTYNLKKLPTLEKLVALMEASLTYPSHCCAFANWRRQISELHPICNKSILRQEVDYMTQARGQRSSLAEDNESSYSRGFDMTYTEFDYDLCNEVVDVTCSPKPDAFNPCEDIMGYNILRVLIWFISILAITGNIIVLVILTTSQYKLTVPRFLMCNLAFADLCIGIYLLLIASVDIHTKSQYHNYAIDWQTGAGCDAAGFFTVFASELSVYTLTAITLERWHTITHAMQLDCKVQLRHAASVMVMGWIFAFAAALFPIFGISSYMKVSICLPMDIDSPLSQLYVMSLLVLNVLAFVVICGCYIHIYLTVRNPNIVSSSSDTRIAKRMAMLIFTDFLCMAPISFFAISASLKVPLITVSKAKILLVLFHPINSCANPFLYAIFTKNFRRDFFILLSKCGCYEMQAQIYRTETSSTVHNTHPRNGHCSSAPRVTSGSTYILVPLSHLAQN
Assay: HTRF assay for measuring cAMP in cells, FSH-antagonistic effect (in the presence of hFSH)
Format: cell-based
Conditions: hFSHR clone 16 cells (CHO cells stably transfected with the human FSH receptor), in the presence of 1e-9 mol/l hFSH, 37° C. for 2 h
Description: […]

| IC50 [µM] | SMILES |
| --- | --- |
| 7 | COc1cc(-c2cc(C(=O)NC(CO)Cc3c[nH]c4ccc(Br)cc34)c3ccccc3n2)cc(OC)c1OC (racemic) [Example 1, N-[(R,S)-2-(5-Bromo-1H-indol-3-yl)-1-(hydroxymethyl)ethyl]-2-(3,4,5-trimethoxyphenyl)quinoline-4-carboxamide] |
| 1 | COc1cc(-c2cc(C(=O)NC(CO)Cc3c[nH]c4cc(F)ccc34)c3ccccc3n2)cc(OC)c1OC (racemic) [Example 8, N-[(R,S)-2-(6-Fluoro-1H-indol-3-yl)-1-(hydroxymethyl)ethyl]-2-(3,4,5-trimethoxyphenyl)quinoline-4-carboxamide] |
| 0.2 | COc1cc(-c2cc(C(=O)NC(CO)Cc3c[nH]c4ccc(OCc5ccccc5)cc34)c3ccccc3n2)cc(OC)c1OC (racemic) [Example 9, N-[(R,S)-1-(Hydroxymethyl)-2-[5-(phenylmethoxy)-1H-indol-3-yl]ethyl]-2-(3,4,5-trimethoxyphenyl)quinoline-4-carboxamide] |
| 1 | COc1cc(-c2cc(C(=O)NC(CO)Cc3c[nH]c4c(C)cccc34)c3ccccc3n2)cc(OC)c1OC (racemic) [Example 10, N-[(R,S)-1-(Hydroxymethyl)-2-(7-methyl-1H-indol-3-yl)ethyl]-2-(3,4,5-trimethoxyphenyl)quinoline-4-carboxamide] |
| 4 | COc1ccc2nc(-c3ccc(OC)c(OC)c3OC)cc(C(=O)N[C@@H](CO)Cc3c[nH]c4ccccc34)c2c1 [Example 16, N-[(R)-1-(Hydroxymethyl)-2-(1H-indol-3-yl)ethyl]-6-methoxy-2-(2,3,4-trimethoxyphenyl)quinoline-4-carboxamide] |
| 0.4 | COc1cc(-c2cc(C(=O)N[C@@H](CO)Cc3c[nH]c4ccccc34)c3cc(F)ccc3n2)cc(OC)c1OC [Example 17, 6-Fluoro-N-[(R)-1-(hydroxymethyl)-2-(1H-indol-3-yl)ethyl]-2-(3,4,5-trimethoxyphenyl)quinoline-4-carboxamide] |
| 6 | COc1cc(-c2cc(C(=O)N[C@@H](CO)Cc3c[nH]c4ccccc34)c3cc([N+](=O)[O-])ccc3n2)cc(OC)c1OC [Example 19, N-[(R)-1-(Hydroxymethyl)-2-(1H-indol-3-yl)ethyl]-6-nitro-2-(3,4,5-trimethoxyphenyl)quinoline-4-carboxamide] |
| 0.3 | COc1ccc2nc(-c3cc(OC)c(OC)c(OC)c3)cc(C(=O)N[C@@H](CO)Cc3cn(C)c4ccccc34)c2c1 [Example 22, N-[(R)-1-(Hydroxymethyl)-2-(1-methyl-1H-indol-3-yl)ethyl]-6-methoxy-2-(3,4,5-trimethoxyphenyl)quinoline-4-carboxamide] |
| 6 | O=C(N[C@@H](CO)Cc1c[nH]c2ccccc12)c1cc(-c2ccc3c(c2)CCO3)nc2ccccc12 [Example 36, 2-(2,3-Dihydrobenzofuran-5-yl)-N-[(R)-1-(hydroxymethyl)-2-(1H-indol-3-yl)ethyl]quinoline-4-carboxamide] |
| 0.9 | COc1ccc2nc(/C=C/c3ccc(OC)c(OC)c3)cc(C(=O)N[C@@H](CO)Cc3c[nH]c4ccccc34)c2c1 [Example 38, 2-[(E)-2-(3,4-Dimethoxyphenyl)ethenyl]-N-[(R)-1-(hydroxymethyl)-2-(1H-indol-3-yl)ethyl]-6-methoxyquinoline-4-carboxamide] |
| 6 | CC(C)c1cccc(-c2cccc(C(=O)N[C@@H](CO)Cc3c[nH]c4ccccc34)c2)c1 [Example 59, N-[(R)-1-(Hydroxymethyl)-2-(1H-indol-3-yl)ethyl]-3′-(1-methylethyl)[1,1′-biphenyl]-3-carboxamide] |
| 8 | CC(C)c1cccc(-c2ccccc2C(=O)N[C@@H](CO)Cc2c[nH]c3ccccc23)c1 [Example 86, N-[(R)-1-(Hydroxymethyl)-2-(1H-indol-3-yl)ethyl]-3′-(1-methylethyl)[1,1′-biphenyl]-2-carboxamide] |
| 10 | COc1ccc(OC)c(-c2cccc(C(=O)N[C@@H](CO)Cc3c[nH]c4ccccc34)c2)c1 [Example 87, N-[(R)-1-(Hydroxymethyl)-2-(1H-indol-3-yl)ethyl]-2′,5′-dimethoxy-[1,1′-biphenyl]-3-carboxamide] |
| 10 | COc1ccc(-c2cc(F)c(F)c(F)c2)c(C(=O)N[C@@H](CO)Cc2c[nH]c3ccccc23)c1 [Example 88, 3′,4′, 5′-Trifluoro-N-[(R)-1-(hydroxymethyl)-2-(1H-indol-3-yl)ethyl]-4-methoxy[1,1′-biphenyl]-2-carboxamide] |
| 6 | COc1cc(COc2ccccc2CCC(=O)N[C@@H](CO)Cc2c[nH]c3ccccc23)cc(OC)c1OC [Example 91, N-[(R)-1-(Hydroxymethyl)-2-(1H-indol-3-yl)ethyl]-2-[(3,4,5-trimethoxyphenyl)methoxy]phenylpropanamide] |
| 7 | COc1ccc2nc(CCc3ccc(OC)c(OC)c3)cc(C(=O)N[C@@H](CO)Cc3c[nH]c4ccccc34)c2c1 [Example 96, 2-[2-(3,4-dimethoxyphenyl)ethyl]-N-[(R)-1-(hydroxymethyl)-2-(1H-indol-3-yl)ethyl]-6-methoxyquinoline-4-carboxamide] |
| 4 | COc1ccc2cc(-c3cc(C(=O)N[C@@H](CO)Cc4c[nH]c5ccccc45)c4ccccc4n3)ccc2c1 [Example 97, 2-(6-Methoxy-naphthalen-2-yl)quinoline-4-carboxylic acid [(R)-1-hydroxymethyl-2-(1H-indol-3-yl)ethyl]amide] |
| 3 | Cc1nc(C)c(-c2cc(C(=O)N[C@@H](CO)Cc3c[nH]c4ccccc34)c3cc(Br)ccc3n2)s1 [Example 108, 6-Bromo-2-(2,4-dimethyl-thiazol-5-yl)quinoline-4-carboxylic acid [(R)-2-hydroxy-1-(1H-indol-3-ylmethyl)ethyl]amide] |
| 1.5 | COc1ccc2nc(-c3cc4c(F)cccc4o3)cc(C(=O)N[C@@H](CO)Cc3c[nH]c4ccccc34)c2c1 [Example 120, 2-(4-Fluorobenzofuran-2-yl)-N-[(R)-1-(hydroxymethyl)-2-(1H-indol-3-yl)ethyl]-6-methoxyquinoline-4-carboxamide] |
| 4 | CCOc1ccc(-c2cnc(OC)nc2)cc1C(=O)N[C@@H](CO)Cc1c[nH]c2ccccc12 [Example 130, 2-Ethoxy-N-[(R)-1-hydroxymethyl-2-(1H-indol-3-yl)ethyl]-5-(2-methoxypyrimidin-5-yl)benzamide] |
| 1.5 | CCOc1ccc(-c2ccc(C)cc2)cc1C(=O)N[C@@H](CO)Cc1c[nH]c2ccccc12 [Example 162, 4-Ethoxy-4′-methylbiphenyl-3-carboxylic acid [(R)-1-hydroxy-methyl-2-(1H-indol-3-yl)ethyl]amide] |
| 0.45 | COc1ccc(-c2ccc(OC)c(C(=O)N[C@@H](CO)Cc3c[nH]c4ccccc34)c2)cc1F [Example 307, 3′-Fluoro-4,4′-dimethoxybiphenyl-3-carboxylic acid [(R)-2-hydroxy-1-(1H-indol-3-ylmethyl)ethyl]amide] |
| 3.5 | CCn1cc(C[C@H](CO)NC(=O)c2cc(-c3cc(F)c(OC)c(F)c3)nc3ccc(OC)cc23)c2ccccc21 [Example 337] |
| 1 | CCCCCCn1cc(C[C@H](CO)NC(=O)c2cc(-c3cc(OC)c(OC)c(OC)c3)nc3ccc(OC)cc23)c2ccccc21 [Example 345, N-[(R)-1-(Hydroxymethyl)-2-(1-nhexyl-1H-indol-3-yl)ethyl]-6-methoxy-2-(3,4,5-trimethoxyphenyl)quinoline-4-carboxamide] |
| 4 | COc1cc(-c2cc(C(=O)N[C@@H](CO)Cc3c[nH]c4ccccc34)c3nc[nH]c3c2)cc(OC)c1OC [Example 361, 6-(3,4,5-Trimethoxyphenyl)-1H-benzoimidazole-4-carboxylic acid [(R)-2-hydroxy-1-(1H-indol-3-ylmethyl)ethyl]amide] |
| 2.5 | COc1ccc2nc(-c3ccc(OC)c(F)c3)nc(C(=O)N[C@@H](CO)Cc3c[nH]c4ccccc34)c2c1 [Example 368, 2-(3-Fluoro-4-methoxyphenyl)-6-methoxyquinazoline-4-carboxylic acid [(R)-2-hydroxy-1-(1H-indol-3-ylmethyl)ethyl]amide] |
| 8 | COc1ccc2nc(-c3cc(OC)c(OC)c(OC)c3)cc(C(=O)N[C@H](Cc3c[nH]c4ccccc34)C(C)(C)O)c2c1 [Example 373, 6-Methoxy-2-(3,4,5-trimethoxyphenyl)quinoline-4-carboxylic acid [(R)-2-hydroxy-1-(1H-indol-3-ylmethyl)-2-methylpropyl]amide] |
| 4.5 | COc1cc(-c2cc(C#CCO)cc(C(=O)N[C@@H](CO)Cc3c[nH]c4ccccc34)c2)cc(OC)c1OC [Example 379, 5-(3-Hydroxyprop-1-ynyl)-3′,4′,5′-trimethoxybiphenyl-3-carboxylic acid [(R)-1-hydroxy-methyl-2-(1H-indol-3-yl)ethyl]amide] |
| 0.4 | COc1cc(-c2cc(/C=C\CCCO)cc(C(=O)N[C@@H](CO)Cc3c[nH]c4ccccc34)c2)cc(OC)c1OC [Example 388, 5-((Z)-5-Hydroxypent-1-enyl)-3′,4′,5′-trimethoxybiphenyl-3-carboxylic acid [(R)-1-hydroxy-methyl-2-(1H-indol-3-yl)ethyl]amide] |

Source: US20070060573A1, “Acyltryptophanols” (priority 2005, published 2007)
